Publication PMC6037779, “Repurposing drugs to target the malaria parasite unfolding protein response” (Scientific Reports, 2018)
Like-named read-outs stand apart in the source and are kept apart here.

Legend:
PfGRP78-NBD wt = molecular target: T1, PfGRP78-NBD wt (Plasmodium falciparum, UniProt Q05866); experiment: biochemical; format: binding
T1 construct: His-tag (pET28-MHL, TEV site) (N, cleaved yes); made in house; host or cells: E. coli BL21(DE3)
Procedure: (§1) To quantify the binding affinities of PfGRP78-NBD for the selected compounds, dissociation constants (Kd) were determined by surface plasmon resonance (SPR). […] Purified PfGRP78-FL, PfGRP78-NBD wild-type and mutant, and human GRP78-NBD were immobilized on a CM5 sensorchip using NHS/EDC coupling following the manufacturer protocol to a level of <10,000 RUs, a reference surfaces without immobilized proteins served as a control for nonspecific binding and refractive index changes. […] The running buffer was 10 mM HEPES, pH 7.4, 150 mM NaCl, 0.005% P20, 1% DMSO and 2 mM MgCl2. Buffer only injections were used as blanks. The Biacore responses recorded during the 30 seconds of the injection were used to estimate the association constant (kon) and the 300 seconds after the injection were used to estimate the dissociation constant (koff). All dissociation and kinetic constants were estimated using double subtracted sensorgrams[40] using BiaEvaluation Software (GE Healthcare). All the reported parasite dissociation constants (Kd) were estimated with affinity analysis, and all the reported human Kds were calculated from kinetic constants.

PfGRP78-NBD = molecular target: T2, PfGRP78-NBD (Plasmodium falciparum, UniProt Q05866); experiment: DSF thermal shift, PfGRP78-NBD; format: binding; details: compound 0.5 mM; shifts above or below 1 °C significant
T2 construct: His-tag (pET28-MHL, TEV site) (N, cleaved yes); made in house; host or cells: E. coli BL21(DE3)
Procedure: The Plasmodium and human GRP78 NBD differences were further characterized by measuring their interaction with ATP, ADP, and several compounds referenced in the literature as GRP78 inhibitors (Fig. 3a). Initially, their binding was determined using a DSF (Differential Scanning Fluorimetry) assay. In this assay, an interaction between the chaperone and a compound was measured as a change in the protein’s melting temperature (Tm), by subtracting the Tm of the protein by itself to the melting value of the protein in the presence of the compound. Differences above or below 1 °C between the melting temperatures (ΔTm) were considered indicative of a protein-compound interaction. As expected, the Plasmodium GRP78 chaperone interacted with both ATP and ADP. Four of the six compounds tested had significant effects on protein thermal stability (Fig. 3b).
DSF screening was carried out using a CFX96 Touch Real-Time PCR Detection System (BioRad, California). The PfGRP78-FL, PfGRP78-NBD wild type and mutant, and human GRP78-NBD were buffered in 25 mM hepes pH 7.5, 250 mM NaCl and assayed in a 96-well format. […]. The concentration was optimized for each protein to avoid saturation of the fluorescence detector. The GRP78 inhibitors were used at a final concentration of 0.5 mM. SYPRO Orange (Life Technologies, USA) was added as a fluorescence probe in a dilution of 1:1000. The experiments were conducted between 18 °C to 90 °C at a heating rate of 1 °C per minute. The recorded fluorescence reads were fitted to the Boltzmann sigmoid function using DMAN software. The inflection point of each fitted curve is defined as the melting temperature (Tm). The observed temperature shift, ΔTm, was recorded as the difference between Tm of the protein with ligand minus Tm of the protein without ligand. Thermal shifts above or below 1 °C were considered significant.

huGRP78-NBD [1] = molecular target: T3, huGRP78-NBD (Homo sapiens, UniProt P11021); experiment: SPR (Biacore) binding to human GRP78-NBD
T3 construct: PfGRP78-NBD wild type and mutant, and human GRP78-NBD were buffered in 25 mM hepes pH 7.5
Procedure: as §1

PfGRP78-NBD mut (Y39F) = molecular target: T4, PfGRP78-NBD mut (Y39F) (Plasmodium falciparum, UniProt Q05866, Y39F); experiment: SPR (Biacore) binding to PfGRP78-NBD Y39F mutant; details: ± standard error, 25 °C, read-out: affinity constant (Kd) determined by SPR, PfGRP78-NBD mut
T4 construct: His-tag (pET28-MHL, TEV site) (N, cleaved yes); made in house; host or cells: E. coli BL21(DE3)
Procedure: To quantify the binding affinities of PfGRP78-NBD for the selected compounds, dissociation constants (Kd) were determined by surface plasmon resonance (SPR). […] Purified PfGRP78-FL, PfGRP78-NBD wild-type and mutant, and human GRP78-NBD were immobilized on a CM5 sensorchip using NHS/EDC coupling following the manufacturer protocol to a level of <10,000 RUs, a reference surfaces without immobilized proteins served as a control for nonspecific binding and refractive index changes. Seven different concentrations of the ligands between 0.4 nM to 1 mM, were injected in triplicate over the sensor chip at 30 µL/min in random order. The running buffer was 10 mM HEPES, pH 7.4, 150 mM NaCl, 0.005% P20, 1% DMSO and 2 mM MgCl2. Buffer only injections were used as blanks. The Biacore responses recorded during the 30 seconds of the injection were used to estimate the association constant (kon) and the 300 seconds after the injection were used to estimate the dissociation constant (koff). All dissociation and kinetic constants were estimated using double subtracted sensorgrams[40] using BiaEvaluation Software (GE Healthcare). All the reported parasite dissociation constants (Kd) were estimated with affinity analysis, and all the reported human Kds were calculated from kinetic constants.

Plasmodium falciparum W2 = experiment: In vitro growth inhibition assay (SYBR Green I), strain W2; format: cell-based; details: read-out: EC50, growth inhibition, P. falciparum W2
Procedure: (§2) A major goal of our study was to evaluate the drug target potential of P. falciparum GRP78, thus we evaluated the effect of the chaperone inhibition on the malaria parasite. Our approach took advantage of several GRP78 inhibitors (Fig. 3a) previously characterized against human cancer cell lines, which were commercially available[20],[24]–[27]. These compounds were tested against two different parasite strains with opposite sensitivity towards the antimalarial drug chloroquine, 3D7 (sensitive) and W2 (resistant). […] A synchronized P. falciparum culture, with over 80% ring forms, was used in the growth inhibition assay. Each strain was assayed at 0.5% parasitaemia and 1.5% hematocrit. A 190 µL aliquot of parasite culture was dispensed per well to microplates that were pre-dispensed with the compounds at various dilutions. […] Dilutions of GRP78 inhibitors and DHA were prepared in water with a final concentration of DMSO below 0.05% (v/v). […] After incubation, the plates were subject to a freeze-thaw cycle (−80 °C) and the parasite growth was quantified by the SYBR Green I method as previously described. Briefly, 100 µl of homogenized parasite culture was transferred into 96-well black plates. 100 µl of SYBR Green lysis buffer (2x SYBR Green I, 100 mM Tris-HCl pH 7.5, 10 mM EDTA, 0.016% Saponin and 1.6% Triton X-100) were added to each well. The plates were incubated at room temperature in darkness for 1 hour.
(§3) Growth inhibition experiments were conducted at least three times per compound. […] The statistical analysis was performed with the software Prism 7 (GraphPad Software, San Diego, CA).

[2] = tested on: Plasmodium falciparum 3D7; experiment: In vitro growth inhibition assay (SYBR Green I), strain 3D7; format: cell-based; details: read-out: EC50, growth inhibition, P. falciparum 3D7
Procedure: as §2, §3

huGRP78-NBD [3] = molecular target: T3, huGRP78-NBD; experiment: DSF thermal shift, human GRP78-NBD; format: binding; details: compound 0.5 mM
Procedure: (§4) Initially, their binding was determined using a DSF (Differential Scanning Fluorimetry) assay. In this assay, an interaction between the chaperone and a compound was measured as a change in the protein’s melting temperature (Tm), by subtracting the Tm of the protein by itself to the melting value of the protein in the presence of the compound. Differences above or below 1 °C between the melting temperatures (ΔTm) were considered indicative of a protein-compound interaction.
(§5) DSF screening was carried out using a CFX96 Touch Real-Time PCR Detection System (BioRad, California). The PfGRP78-FL, PfGRP78-NBD wild type and mutant, and human GRP78-NBD were buffered in 25 mM hepes pH 7.5, 250 mM NaCl and assayed in a 96-well format. The final concentration of the protein sample was optimized between 0.05 and 0.2 mg/ml for each protein. The concentration was optimized for each protein to avoid saturation of the fluorescence detector. The GRP78 inhibitors were used at a final concentration of 0.5 mM. SYPRO Orange (Life Technologies, USA) was added as a fluorescence probe in a dilution of 1:1000.

HCT-116 = experiment: Growth inhibition of human cell line; format: cell-based
Procedure: as §3

PfGRP78-FL = molecular target: T5, PfGRP78-FL (Plasmodium falciparum, UniProt Q05866, DEL449-452/N453V/P455G/Q454G/T226A); experiment: DSF thermal shift, PfGRP78 full-length; format: binding; details: read-out: ΔTm (DSF), PfGRP78-FL
T5 construct: His-tag (TEV site) (N, cleaved yes); made in house; host or cells: E. coli BL21(DE3); gene synthesized by Life Technologies
Procedure: as §4, §5

[4] = ± standard error, affinity analysis, 25 °C
[5] = ± standard error, calculated from kinetic constants, 25 °C
[6] = Plasmodium falciparum, W2, 72 h
[7] = Plasmodium falciparum, 3D7, 72 h

T3 sequence (P11021 26-407 limits assumed): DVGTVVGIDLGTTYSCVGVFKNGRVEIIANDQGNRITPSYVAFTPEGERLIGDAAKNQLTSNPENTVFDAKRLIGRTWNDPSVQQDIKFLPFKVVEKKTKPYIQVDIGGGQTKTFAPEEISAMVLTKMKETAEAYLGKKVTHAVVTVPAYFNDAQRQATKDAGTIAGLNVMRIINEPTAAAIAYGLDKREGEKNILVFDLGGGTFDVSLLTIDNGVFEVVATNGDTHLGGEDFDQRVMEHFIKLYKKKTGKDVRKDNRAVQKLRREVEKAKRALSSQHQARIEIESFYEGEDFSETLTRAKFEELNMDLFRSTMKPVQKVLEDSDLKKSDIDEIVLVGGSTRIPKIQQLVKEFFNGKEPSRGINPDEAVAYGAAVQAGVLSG

Row | SMILES | affinity constant (Kd) determined by SPR, PfGRP78-NBD wt (PfGRP78-NBD wt; [4]) | DSF effect on thermal stability of PfGRP78-NBD (PfGRP78-NBD) | affinity constant (Kd) determined by SPR, huGRP78-NBD (huGRP78-NBD [1]; [5]) | EC50 (Plasmodium falciparum W2; [6]) | EC50 [2, 7] | other results
1 | CCN(CC)c1ncnc2c1ncn2[C@H]1O[C@@H](COP(=O)(O)OP(=O)(O)C(Br)(Br)P(=O)(O)O)[C@H](O)[C@@H]1O [ARL-67156] | N.B. | non-binders | N.B. | – | – | –
2 | Nc1ncnc2c1ncn2[C@@H]1O[C@H](COP(=O)(O)OP(=O)(O)OP(=O)(O)O)[C@@H](O)[C@H]1O [ATP] | – | interacted | – | – | – | Kd (PfGRP78-NBD mut (Y39F)): 312000 ± 15000 nM; fold decrease in affinity of malaria chaperone compared to the human counterpart (PfGRP78-NBD wt; SPR Kd, PfGRP78-NBD vs huGRP78-NBD): 23 fold; Kd (PfGRP78-NBD wt; ± standard error, affinity analysis, 25 °C, read-out: affinity constant (Kd) determined by SPR, PfGRP78-NBD wt): 333000 ± 74000 nM; Kd (huGRP78-NBD [1]; ± standard error, calculated from kinetic constants, 25 °C, read-out: affinity constant (Kd) determined by SPR, huGRP78-NBD): 14000 ± 7000 nM
3 | CCN(CC)CCCC(C)Nc1ccnc2cc(Cl)ccc12 (centres unmarked) [CQ, chloroquine] | – | – | – | 230 ± 30 nM | 50 ± 11 nM | –
4 | C[C@H]1[C@@H](O)O[C@@H]2O[C@@]3(C)CC[C@H]4[C@H](C)CC[C@@H]1[C@@]24OO3 [DHA] | – | – | – | – | – | EC50 (Plasmodium falciparum W2; chloroquine-resistant strain, 72 hours, average of three ± SD): 0.1 ± 0.02 nM; EC50 ([2]; chloroquine-sensitive strain, 72 hours, average of three ± SD): 0.4 ± 0.07 nM
5 | CN(NC(=O)CC(=O)NN(C)C(=S)c1ccccc1)C(=S)c1ccccc1 [Elesclomol] | N.B. | non-binders | N.B. | – | – | EC50 (Plasmodium falciparum W2; Plasmodium falciparum, W2, chloroquine-resistant strain, 72 hours, average of three ± SD): 60 ± 10 nM; EC50 ([2]; Plasmodium falciparum, 3D7, chloroquine-sensitive strain, 72 hours, average of three ± SD): 50 ± 17 nM
6 | C=Cc1cc(OC)c2c(c1)c(=O)oc1c2cc(OC)c2c(O)ccc(C3OC(C(C)O)C(O)C3O)c21 (centres unmarked) [Gilvocarcin V] | N.B. | increased the thermal stability | N.B. | 80 ± 40 nM | 20 ± 4 nM | affinity constant (Kd) determined by SPR, PfGRP78-NBD wt (PfGRP78-NBD wt; ± standard error, affinity analysis, 25 °C, listed as Gilvocarcin A): too weak to accurately determine its dissociation constant; affinity constant (Kd) determined by SPR, huGRP78-NBD (huGRP78-NBD [1]; ± standard error, calculated from kinetic constants, 25 °C, listed as Gilvocarcin A): too weak to accurately determine its dissociation constant
7 | CCn1c(=O)/c(=C2\Sc3ccccc3N2C)s/c1=C\c1cccc[n+]1CC [MKT-077] | – | significant thermal destabilization | – | 70 ± 30 nM | 70 ± 20 nM | DSF effect on thermal stability of human GRP78-NBD (huGRP78-NBD [3]): destabilized; times more selective towards P. falciparum (HCT-116; HCT-116 vs P. falciparum EC50, Results text b30): 14 times; EC50 (HCT-116; Homo sapiens, HCT-116, read-out: EC50, growth inhibition, HCT-116): 980 ± 230 nM; Kd (PfGRP78-NBD wt): 16400 ± 1700 nM; Kd (huGRP78-NBD [1]): 16000 ± 170 nM; ΔTm at 500 µM (PfGRP78-FL): 0.6 °C
8 | N#Cc1ccc(COCC2OC(n3c(NCc4ccc(Cl)c(Cl)c4)nc4c(N)ncnc43)C(O)C2O)cc1 (centres unmarked) [VER-155008] | – | increased the thermal stability | – | 39500 nM | 82100 ± 49700 nM | EC50 (HCT-116; HCT-116, human cell line, average of three ± SD, read-out: EC50, growth inhibition, HCT-116): 15710 ± 70 nM; Kd (PfGRP78-NBD wt): 164000 ± 13600 nM
